Literature values, collected in patent US12251425B2, “Sustained-release lipid preformulation and pharmaceutical composition for sustained-release injection in form of lipid solution containing same” (IMDPHARM INC., priority 2019, dated 2025).

Conditions: 25° C.

- viscosity: about 1000 mPa·s
Substance: sorbitan monooleate
